Measurements from patent US20210155604A1, “QUINAZOLINE COMPOUND SERVING AS EGFR TRIPLE MUTATION INHIBITOR AND APPLICATIONS THEREOF” (EAST CHINA UNIVERSITY OF SCIENCE AND TECHNOLOGY, priority 2018, published 2021).

Experiments:
[1] = biological target: T1, EGFR L858R/T790M/C797S (LR/TM/CS) (Homo sapiens, UniProt P00533, C797S/L858R/T790M); test: ELISA kinase activity detection, EGFR triple mutant; type: biochemical; settings: ELISA-based EGFR-TK assay, ATP 5 μM, mean ± SD
T1 construct: purchased BPS Bioscience
T1 sequence (P00533 25-1210 T790M/C797S/L858R): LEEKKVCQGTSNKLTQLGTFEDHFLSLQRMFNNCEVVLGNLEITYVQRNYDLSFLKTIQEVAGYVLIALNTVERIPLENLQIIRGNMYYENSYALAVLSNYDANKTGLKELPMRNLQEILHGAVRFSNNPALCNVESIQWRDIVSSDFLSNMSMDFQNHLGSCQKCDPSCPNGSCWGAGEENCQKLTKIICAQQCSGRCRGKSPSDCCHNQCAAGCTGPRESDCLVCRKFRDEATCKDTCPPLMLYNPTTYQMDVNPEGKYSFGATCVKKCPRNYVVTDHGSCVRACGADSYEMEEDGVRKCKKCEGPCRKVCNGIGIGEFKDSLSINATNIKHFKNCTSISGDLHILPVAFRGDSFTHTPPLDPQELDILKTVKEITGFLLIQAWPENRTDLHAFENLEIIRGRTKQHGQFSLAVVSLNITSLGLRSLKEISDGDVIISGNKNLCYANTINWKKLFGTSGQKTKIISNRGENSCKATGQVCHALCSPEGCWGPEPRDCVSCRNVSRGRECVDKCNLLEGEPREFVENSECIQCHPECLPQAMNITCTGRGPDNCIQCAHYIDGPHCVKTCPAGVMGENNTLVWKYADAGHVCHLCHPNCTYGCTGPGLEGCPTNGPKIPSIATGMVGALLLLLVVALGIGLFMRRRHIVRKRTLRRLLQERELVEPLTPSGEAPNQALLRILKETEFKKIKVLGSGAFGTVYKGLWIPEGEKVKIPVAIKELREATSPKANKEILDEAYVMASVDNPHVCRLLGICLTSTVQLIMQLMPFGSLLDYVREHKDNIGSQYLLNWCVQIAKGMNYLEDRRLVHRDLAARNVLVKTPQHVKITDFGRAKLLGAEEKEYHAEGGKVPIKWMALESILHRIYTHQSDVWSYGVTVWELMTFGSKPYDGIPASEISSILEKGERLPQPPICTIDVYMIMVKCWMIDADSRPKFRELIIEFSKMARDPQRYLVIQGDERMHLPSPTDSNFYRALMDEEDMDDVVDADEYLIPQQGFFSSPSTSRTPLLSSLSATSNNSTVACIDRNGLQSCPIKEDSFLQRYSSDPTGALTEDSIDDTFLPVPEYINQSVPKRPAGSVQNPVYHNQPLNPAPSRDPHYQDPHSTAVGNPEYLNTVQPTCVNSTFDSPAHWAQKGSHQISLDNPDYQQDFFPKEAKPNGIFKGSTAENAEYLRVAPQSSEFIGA
Method: (§1) Tyrosine kinase: EGFR(WT) • EGFR^T790M/L858R(LR/TM) • EGFR^T790M/L858R/[…](LR/TM/CS)
(§2) ELISA Kinase Activity Detection
Enzyme-Linked Immunosorbent Assay (ELISA) was used to detect the ability of a kinase to phosphorylate a substrate and calculate the inhibitory effect of a compound on the kinase activity. The used kinase was EGFR L858R/T790M/C797S (purchased from BPS Bioscience).
(§3) The main steps of ELISA are listed as follows: the substrate Poly(Glu, Tyr) 4:1 was diluted with potassium ion-free PBS to 2.5 μg/well, incubated at 37° C. for 12-16 h to coat the ELISA plate for use. An ATP solution (final concentration of 5 μM) diluted with a reaction buffer (50 mM HEPES pH 7.4, 20 mM MgCl2, 0.1 mM MnCl2, 0.2 mM Na3VO4, 1 mM DTT) was added to each well. A compound or solvent control was added, and then a kinase was added to start the reaction at 37° C. in a shaker for 1 h. The plate was washed for three times with T-PBS, and 100 μL of antibody PY99 (diluted in T-PBS containing 5 mg/mL BSA, 1: 500) was added, and incubated in a shaker at 37° C. for 0.5 h. After washing the plate with T-PBS, 100 μL of horseradish peroxidase-labeled goat anti-mouse IgG (diluted in T-PBS containing 5 mg/mL BSA, 1: 2000) was added, and incubated in a shaker at 37° C. for 0.5 h. After washing the plate again, a developing liquid containing 0.03% H2O2, 2 mg/mL OPD (0.1 mol/L, in citrate buffer solution pH 5.4) was added at 100 μL/well, and incubated for 1-10 min at 25° C. in darkness. 50 μL/well of 2 M H2SO4 was added to quench the reaction, and read with a wavelength-tunable microplate reader (SpectraMax Plus384, Molecular Devices) at a wavelength of 490 nm. The IC50 value was obtained from the inhibition curve.

EGFR(WT) = EGFR(WT) (Homo sapiens, UniProt P00533); test: ELISA kinase activity detection, EGFR(WT); type: biochemical; settings: ELISA-based EGFR-TK assay, ATP 5 μM; mean ± SD of at least two determinations
EGFR(WT), sequence (P00533 25-1210): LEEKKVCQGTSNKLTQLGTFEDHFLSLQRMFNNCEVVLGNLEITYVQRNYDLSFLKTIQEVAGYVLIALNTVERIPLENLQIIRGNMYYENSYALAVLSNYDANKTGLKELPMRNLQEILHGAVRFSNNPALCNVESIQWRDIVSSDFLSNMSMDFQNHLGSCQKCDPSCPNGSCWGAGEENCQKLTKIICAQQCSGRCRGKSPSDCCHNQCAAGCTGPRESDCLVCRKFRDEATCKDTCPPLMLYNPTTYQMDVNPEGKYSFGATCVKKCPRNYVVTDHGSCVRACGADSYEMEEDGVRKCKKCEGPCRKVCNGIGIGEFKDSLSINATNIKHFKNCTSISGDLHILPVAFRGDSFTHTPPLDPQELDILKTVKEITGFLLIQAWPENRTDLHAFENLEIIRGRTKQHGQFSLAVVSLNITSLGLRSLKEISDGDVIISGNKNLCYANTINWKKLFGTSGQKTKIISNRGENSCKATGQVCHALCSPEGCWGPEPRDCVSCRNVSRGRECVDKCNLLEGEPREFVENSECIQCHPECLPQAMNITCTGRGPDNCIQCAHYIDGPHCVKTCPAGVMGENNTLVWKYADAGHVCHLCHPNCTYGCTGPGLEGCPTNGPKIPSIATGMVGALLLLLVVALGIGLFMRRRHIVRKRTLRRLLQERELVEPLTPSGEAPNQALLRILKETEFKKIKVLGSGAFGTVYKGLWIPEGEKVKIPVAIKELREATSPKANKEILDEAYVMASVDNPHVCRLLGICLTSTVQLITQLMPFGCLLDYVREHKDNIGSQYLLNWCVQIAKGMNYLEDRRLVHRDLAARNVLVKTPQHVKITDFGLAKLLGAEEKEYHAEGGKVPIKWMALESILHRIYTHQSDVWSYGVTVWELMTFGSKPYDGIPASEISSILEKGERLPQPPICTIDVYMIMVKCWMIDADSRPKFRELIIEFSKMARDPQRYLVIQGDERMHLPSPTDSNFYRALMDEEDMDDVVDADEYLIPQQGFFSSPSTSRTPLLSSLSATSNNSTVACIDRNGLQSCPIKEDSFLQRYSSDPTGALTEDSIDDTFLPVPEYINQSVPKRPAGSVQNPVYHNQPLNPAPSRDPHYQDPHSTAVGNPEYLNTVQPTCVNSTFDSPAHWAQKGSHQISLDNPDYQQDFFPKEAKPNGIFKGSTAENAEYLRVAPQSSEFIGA
Method: as §1, §2
Enzyme-Linked Immunosorbent Assay (ELISA) was used to detect the ability of a kinase to phosphorylate a substrate and calculate the inhibitory effect of a compound on the kinase activity. […]
as §3

EGFR L858R/T790M (LR/TM) = EGFR L858R/T790M (LR/TM) (Homo sapiens, UniProt P00533, L858R/T790M); test: ELISA kinase activity detection, EGFR double mutant; type: biochemical; settings: ELISA-based EGFR-TK assay, ATP 5 μM, mean ± SD
EGFR L858R/T790M (LR/TM), sequence (P00533 25-1210 T790M/L858R): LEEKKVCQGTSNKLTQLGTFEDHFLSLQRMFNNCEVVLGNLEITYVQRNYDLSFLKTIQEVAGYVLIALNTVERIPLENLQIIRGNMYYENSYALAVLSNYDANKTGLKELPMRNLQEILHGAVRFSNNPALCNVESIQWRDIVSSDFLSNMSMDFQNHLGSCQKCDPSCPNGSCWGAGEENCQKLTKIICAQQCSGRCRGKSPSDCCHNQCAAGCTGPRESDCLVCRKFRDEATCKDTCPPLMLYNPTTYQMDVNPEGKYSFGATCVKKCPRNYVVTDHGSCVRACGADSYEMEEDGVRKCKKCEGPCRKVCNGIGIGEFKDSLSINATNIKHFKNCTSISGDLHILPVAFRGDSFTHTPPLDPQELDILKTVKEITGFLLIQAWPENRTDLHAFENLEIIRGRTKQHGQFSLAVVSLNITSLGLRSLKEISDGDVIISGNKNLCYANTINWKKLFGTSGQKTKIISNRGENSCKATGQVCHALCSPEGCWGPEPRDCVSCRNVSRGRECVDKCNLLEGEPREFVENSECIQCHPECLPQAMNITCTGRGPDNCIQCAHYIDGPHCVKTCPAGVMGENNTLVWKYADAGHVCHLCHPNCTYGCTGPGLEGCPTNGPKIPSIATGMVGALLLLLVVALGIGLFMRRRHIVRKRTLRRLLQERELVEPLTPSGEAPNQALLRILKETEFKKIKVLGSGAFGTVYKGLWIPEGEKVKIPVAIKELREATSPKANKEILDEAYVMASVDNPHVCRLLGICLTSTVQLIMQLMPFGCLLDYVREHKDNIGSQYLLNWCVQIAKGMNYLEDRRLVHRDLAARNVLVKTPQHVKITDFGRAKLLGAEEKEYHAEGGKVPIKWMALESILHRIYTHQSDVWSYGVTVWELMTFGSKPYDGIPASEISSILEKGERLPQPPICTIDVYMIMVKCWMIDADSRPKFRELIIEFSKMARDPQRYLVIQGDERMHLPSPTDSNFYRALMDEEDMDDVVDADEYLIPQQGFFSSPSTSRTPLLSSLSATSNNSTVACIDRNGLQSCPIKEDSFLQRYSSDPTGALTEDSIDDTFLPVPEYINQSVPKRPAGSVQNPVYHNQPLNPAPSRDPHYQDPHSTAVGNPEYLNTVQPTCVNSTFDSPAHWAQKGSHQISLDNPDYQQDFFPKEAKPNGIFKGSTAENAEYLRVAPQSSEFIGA

melting point: 170.7 to 172.4 °C
IC50 [1]: 9510 ± 526 nM
IC50 (EGFR(WT)): 2710 ± 80.2 nM
IC50 (EGFR L858R/T790M (LR/TM)): > 10000 nM
Structure (SMILES): CN1CCC(COc2ccc3c(Nc4ccccc4P(C)(C)=O)ncnc3c2)CC1 [Example 14]
